In brackets after ≈: the same amount, converted by molar mass. Where two headings read alike, the source gives them in different places.
Experiments:
[1] = test system: L. johnsonii; experiment: MIC against commensal vaginal Lactobacillus strains; assay type: cell-based, Lactobacillus johnsonii; conditions: for MIC Range: Table 6, L. johsonii (2 strains)
Source text: (§1) N. gonorrhoeae pathogenesis greatly depends on colonization of the reproductive tract. One of the natural barriers of such colonization is an intact healthy microbiome. Species of lactobacilli present in the genitourinary tract play a significant role in hindering colonization by Neisseria(1).
(§2) A healthy vaginal microbiome that is dominated by Lactobacillus spp. is less susceptible to N. gonorrhoeae infection and other sexually transmitted diseases (STDs). […] We tested the activity of azoles against important members of healthy vaginal microbiota that inhibit N. gonorrhoeae colonization.

[2] = test system: N. gonorrhoeae isolates; experiment: MIC against panel of N. gonorrhoeae clinical isolates; assay type: cell-based, Neisseria gonorrhoeae
[3] = test system: Lactobacillus casei; experiment: MIC against normal gut microbiota; assay type: cell-based; conditions: Lactobacillus casei (1 strain)
Source text: (§3) Disrupting the intestinal microbiota using broad-spectrum antimicrobial therapy increases the susceptibility of hosts to C. difficile colonization.

[4] = MIC against normal gut microbiota; assay type: cell-based
Source text: as §3

[5] = test system: Lactobacillus rhamnosus; experiment: MIC against normal gut microbiota; assay type: cell-based; conditions: Lactobacillus rhamnosus (1 strain)
Source text: as §3

[6] = test system: Enterococcus faecalis; experiment: MIC against normal gut microbiota; assay type: cell-based; conditions: Enterococcus faecalis (1 strain)
Source text: as §3

[7] = test system: Bacteroides fragilis; experiment: MIC against normal gut microbiota; assay type: cell-based; conditions: Bacteroides fragilis (4 strains)
Source text: as §3

[8] = test system: Enterococcus faecium; experiment: MIC against normal gut microbiota; assay type: cell-based; conditions: Enterococcus faecium (1 strain)
Source text: as §3

[9] = test system: Escherichia coli; experiment: MIC against normal gut microbiota; assay type: cell-based; conditions: Escherichia coli (1 strain)
Source text: as §3

[10] = test system: Bacteroides dorei; experiment: MIC against normal gut microbiota; assay type: cell-based; conditions: Bacteroides dorei (2 strains)
Source text: as §3

[11] = test system: Bifidobacterium angulatum; experiment: MIC against normal gut microbiota; assay type: cell-based; conditions: Bifidobacterium angulatum (1 strain)
Source text: as §3

[12] = test system: Lactobacillus brevis; experiment: MIC against normal gut microbiota; assay type: cell-based; conditions: Lactobacillus brevis (1 strain)
Source text: as §3

[13] = test system: Staphylococcus aureus; experiment: MIC against normal gut microbiota; assay type: cell-based; conditions: Staphylococcus aureus (1 strain)
Source text: as §3

[14] = test system: L. crispatus; experiment: MIC against commensal vaginal Lactobacillus strains; assay type: cell-based, Lactobacillus crispatus; conditions: for MIC Range: Table 6, L. crispatus (3 strains); for MIC: Lactobacillus crispatus
Source text: as §1, §2

[15] = test system: L. jensenii; experiment: as above; assay type: cell-based, Lactobacillus jensenii; conditions: for MIC Range: Table 6, L. jensenii (7 strains); for MIC: Lactobacillus jensenii
Source text: as §1, §2

[16] = test system: L. gasseri; experiment: as above; assay type: cell-based, Lactobacillus gasseri; conditions: for MIC Range: Table 6, L. gasseri (4 strains); for MIC: Lactobacillus gasseri
Source text: as §1, §2

[17] = test system: commensal vaginal lactobacilli strains; experiment: MIC against all commensal vaginal Lactobacillus strains tested; assay type: cell-based, Lactobacillus spp.
Source text: as §1, §2

[18] = test system: N. lactamica; experiment: MIC against Neisseria spp.; assay type: cell-based; conditions: N. lactamica (1 strain)
Source text: (§4) Intrigued by the specificity and potent activity of azoles against N. gonorrhoeae, we evaluated the extent of the azoles' antibacterial activity against other Neisseria species (Table 8).

[19] = test system: N. mucosa; experiment: MIC against Neisseria spp.; assay type: cell-based; conditions: N. mucosa (1 strain)
Source text: as §4

[20] = test system: N. flavescens; experiment: MIC against Neisseria spp.; assay type: cell-based; conditions: N. flavescens (1 strain)
Source text: as §4

[21] = test system: resistant N. gonorrhoeae isolates; experiment: MIC against resistant N. gonorrhoeae isolates by agar dilution; assay type: cell-based, Neisseria gonorrhoeae
[22] = test system: N. gonorrhoeae; experiment: Post-antibiotic effect (PAE) against N. gonorrhoeae; assay type: cell-based, Neisseria gonorrhoeae; conditions: 1 h exposure at 10×MIC
Source text: Determining the PAE of a new antimicrobial is an important step for dosing and has clinical importance.

[23] = Table 1, 104 N. gonorrhoeae isolates
[24] = Table 3, 103 N. gonorrhoeae isolates with different resistance profiles
[25] = Bacteroides adolescentis (2 strains)

## C[C@@H]1CN2c3c(cc4c(N5C(=O)OC[C@@H]5C)noc4c3F)CC3(C(=O)NC(=O)NC3=O)[C@H]2[C@H](C)O1 [Zoliflodacin]
[1]
  MIC Range: ≤1 µg/mL
[2]; Neisseria gonorrhoeae
  MIC50: 0.06 µg/mL (≈ 0.123 µM)
  MIC90: 0.125 µg/mL (≈ 0.256 µM)
[2]; [23]
  MIC Range: 0.004 to 0.5 µg/mL
[2]; [24]
  MIC50: 0.06 µg/mL (≈ 0.123 µM)
  MIC90: 0.125 µg/mL (≈ 0.256 µM)
  MIC Range: 0.004 to 0.25 µg/mL
[3]
  MIC Range: <0.125 µg/mL
[4]; [25]
  MIC Range: 1 µg/mL (≈ 2.05 µM)
[4]; Bacteroides breve (2 strains)
  MIC Range: 4 µg/mL (≈ 8.21 µM)
[4]; Bacteroides longum (2 strains)
  MIC Range: 1 to 2 µg/mL
[5]
  MIC Range: 0.125 µg/mL (≈ 0.256 µM)
[6]
  MIC Range: 0.5 µg/mL (≈ 1.03 µM)
[7]
  MIC Range: 2 to 8 µg/mL
[8]
  MIC Range: 2 µg/mL (≈ 4.1 µM)
[9]
  MIC Range: 0.25 µg/mL (≈ 0.513 µM)
[10]
  MIC Range: 0.5 to 1 µg/mL
[11]
  MIC Range: 1 µg/mL (≈ 2.05 µM)
[12]
  MIC Range: 1 µg/mL (≈ 2.05 µM)
[13]
  MIC Range: 0.125 µg/mL (≈ 0.256 µM)
[14]
  MIC Range: ≤1 µg/mL
[15]
  MIC Range: ≤1 µg/mL
[16]
  MIC Range: ≤1 µg/mL
[17]; Lactobacillus
  MIC: < 1 µg/mL

## CC[C@H]1OC(=O)[C@H](C)[C@@H](O[C@H]2C[C@@](C)(OC)[C@@H](O)[C@H](C)O2)[C@H](C)[C@@H](O[C@@H]2O[C@H](C)C[C@H](N(C)C)[C@H]2O)[C@](C)(O)C[C@@H](C)CN(C)[C@H](C)[C@@H](O)[C@]1(C)O [Azithromycin]
[18]
  MIC Range: 2 µg/mL (≈ 2.67 µM)
[19]
  MIC Range: 2 µg/mL (≈ 2.67 µM)
[20]
  MIC Range: 2 µg/mL (≈ 2.67 µM)
[1]; Lactobacillus johnsonii, L. johnsonii HM-643
  MIC: 2 µg/mL (≈ 2.67 µM)
[1]
  MIC Range: ≤1 µg/mL
[2]; Neisseria gonorrhoeae, Table 1, 104 N. gonorrhoeae isolates, read-out: MIC50
  MIC50: 1 µg/mL (≈ 1.34 µM)
[2]; Neisseria gonorrhoeae, Table 1, 104 N. gonorrhoeae isolates, read-out: MIC90
  MIC90: 4 µg/mL (≈ 5.34 µM)
[2]; Neisseria gonorrhoeae, Table 3, 103 N. gonorrhoeae isolates with different resistance profiles, read-out: MIC50
  MIC50: 1 µg/mL (≈ 1.34 µM)
[2]; Neisseria gonorrhoeae, Table 3, 103 N. gonorrhoeae isolates with different resistance profiles, read-out: MIC90
  MIC90: 4 µg/mL (≈ 5.34 µM)
[2]; [23]
  MIC Range: 0.03 to 512 µg/mL
[2]; [24]
  MIC Range: 0.03 to 512 µg/mL
[3]
  MIC Range: 0.5 µg/mL (≈ 0.668 µM)
[4]; [25]
  MIC Range: 0.015 µg/mL (≈ 0.02 µM)
[4]; Bacteroides breve (2 strains)
  MIC Range: 0.03 to 0.06 µg/mL
[4]; Bacteroides longum (2 strains)
  MIC Range: 0.25 µg/mL (≈ 0.334 µM)
[5]
  MIC Range: 1 µg/mL (≈ 1.34 µM)
[6]
  MIC Range: 2 µg/mL (≈ 2.67 µM)
[8]
  MIC Range: 0.25 µg/mL (≈ 0.334 µM)
[9]
  MIC Range: 2 µg/mL (≈ 2.67 µM)
[10]
  MIC Range: 4 to 16 µg/mL
[11]
  MIC Range: 0.03 µg/mL (≈ 0.0401 µM)
[12]
  MIC Range: 1 µg/mL (≈ 1.34 µM)
[13]
  MIC Range: 0.25 µg/mL (≈ 0.334 µM)
[21]; strain CDC-174, agar dilution
  MIC: 1 µg/mL (≈ 1.34 µM)
[21]; strain CDC-179, agar dilution
  MIC: 8 µg/mL (≈ 10.7 µM)
[21]; strain CDC-181, agar dilution
  MIC: 256 µg/mL (≈ 342 µM)
[21]; strain WHO-L, agar dilution
  MIC: 0.5 µg/mL (≈ 0.668 µM)
[21]; strain WHO-X, agar dilution
  MIC: 0.5 µg/mL (≈ 0.668 µM)
[21]; strain WHO-Y, agar dilution
  MIC: 1 µg/mL (≈ 1.34 µM)
[21]; strain WHO-Z, agar dilution
  MIC: 1 µg/mL (≈ 1.34 µM)
[14]; L. crispatus HM-103
  MIC: 1 µg/mL (≈ 1.34 µM)
[14]; L. crispatus HM-371
  MIC: 2 µg/mL (≈ 2.67 µM)
[14]; L. crispatus HM-638
  MIC: 1 µg/mL (≈ 1.34 µM)
[14]
  MIC Range: ≤1 µg/mL
[15]; L. jensenii HM-105
  MIC: ≤ 0.5 µg/mL
[15]; L. jensenii HM-372
  MIC: 1 µg/mL (≈ 1.34 µM)
[15]; L. jensenii HM-374
  MIC: 1 µg/mL (≈ 1.34 µM)
[15]; L. jensenii HM-639
  MIC: 1 µg/mL (≈ 1.34 µM)
[15]; L. jensenii HM-640
  MIC: ≤ 0.5 µg/mL
[15]; L. jensenii HM-645
  MIC: 1 µg/mL (≈ 1.34 µM)
[15]; L. jensenii HM-646
  MIC: 2 µg/mL (≈ 2.67 µM)
[15]
  MIC Range: ≤1 µg/mL
[16]; L. gasseri HM-407
  MIC: ≤ 0.5 µg/mL
[16]; L. gasseri HM-642
  MIC: 2 µg/mL (≈ 2.67 µM)
[16]; L. gasseri HM-644
  MIC: 2 µg/mL (≈ 2.67 µM)
[16]; L. gasseri HM-647
  MIC: 1 µg/mL (≈ 1.34 µM)
[16]
  MIC Range: ≤1 µg/mL
[22]; strain FA 1090
  PAE: 6 h
[22]; strain WHO P
  PAE: 8 h
[22]; strain WHO Y
  PAE: 4 h
[17]; all species/strains of Lactobacillus tested (Example 2), read-out: MIC
  MIC: < 1 µg/mL

Source: patent US20250281464A1, “TREATMENT OF PATHOGENIC NEISSERIA SP. INFECTION WITH TRIAZOLE ANTIFUNGAL AGENTS” (Virginia Tech Intellectual Properties, Inc., priority 2022, published 2025)
